Reference: patent publication US10526323B2, “Indazole and azaindazole substituted compounds as mGluR4 allosteric potentiators, compositions, and methods of treating neurological dysfunction” (Vanderbilt University, priority 2015, dated 2020)

Each compound was assayed against mGluR4 (UniProt Q14833) (assay: mGluR4 potentiation assay: increase in response to an EC20 concentration of agonist (species not given)). Details: EC50 for potentiation of mGluR4; table does not state human or rat.
Format: cell-based
Outline: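 Human mGluR4 was expressed in CHO cells read with a Ca2+-sensitive dye; rat mGluR4 was co-expressed with GIRK in […] read by thallium flux. Potentiation is the rise over agonist-alone response, with EC50 and maximal potentiation from non-linear fits.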
With `Cc1nn(CCC(C)Cl)c2ccc(Nc3n[nH]c4cccnc34)cc12` (centres unmarked) [Example 134, N-(1-(3-chlorobutyl)-3-methyl-1H-indazol-5-yl)-1H-pyrazolo[4,3-b]pyridin-3-amine] the EC50 was 77 nM.
With `Cc1nn(CC(=O)O)c2ccc(Nc3n[nH]c4cccnc34)cc12` [Example 135, 2-(5-((1H-pyrazolo[4,3-b]pyridin-3-yl)amino)-3-methyl-1H-indazol-1-yl)acetic acid] the EC50 was 832 nM.
In the case of `CCC(F)(F)Cn1nc(C)c2cc(Nc3n[nH]c4cccnc34)ccc21` [Example 136, N-(1-(2,2-difluorobutyl)-3-methyl-1H-indazol-5-yl)-1H-pyrazolo[4,3-b]pyridin-3-amine], the EC50 is reported as 253 nM.
For `CCC(F)(F)Cn1nc(C)c2cc(Nc3n[nH]c4ncccc34)ccc21` [Example 137, N-(1-(2,2-difluorobutyl)-3-methyl-1H-indazol-5-yl)-1H-pyrazolo[3,4-b]pyridin-3-amine], the EC50 was 436 nM.
`Cc1nn(C(=O)C(F)(F)F)c2ccc(Nc3n[nH]c4nccnc34)cc12` [Example 138, 1-(5-((1H-pyrazolo[3,4-b]pyrazin-3-yl)amino)-3-methyl-1H-indazol-1-yl)-2,2,2-trifluoroethan-1-one] gave an EC50 of 3400 nM.
`Cc1nn(CC(C)(F)F)c2ccc(Nc3n[nH]c4cccnc34)cc12` [Example 139, N-(1-(2,2-difluoropropyl)-3-methyl-1H-indazol-5-yl)-1H-pyrazolo[4,3-b]pyridin-3-amine] gave an EC50 of 310 nM.
Compound `Clc1n[nH]c2ccc(Nc3n[nH]c4cccnc34)cc12` [Example 140, N-(3-chloro-1H-indazol-5-yl)-1H-pyrazolo[4,3-b]pyridin-3-amine] has an EC50 of 455 nM.
In the case of `CCn1nc(Cl)c2cc(Nc3n[nH]c4cccnc34)ccc21` [Example 141, N-(3-chloro-1-ethyl-1H-indazol-5-yl)-1H-pyrazolo[4,3-b]pyridin-3-amine], the EC50 is reported as 815 nM.
With `c1cnc2c(Nc3cnc4cnn(CC5CCC5)c4c3)n[nH]c2c1` [Example 142, N-(1-(cyclobutylmethyl)-1H-pyrazolo[4,3-b]pyridin-6-yl)-1H-pyrazolo[4,3-b]pyridin-3-amine] the EC50 was greater than 10000 nM.
For `Cc1cc(Cn2ncc3ncc(Nc4n[nH]c5nccnc45)cc32)no1` [Example 143, N-(1-((5-methylisoxazol-3-yl)methyl)-1H-pyrazolo[4,3-b]pyridin-6-yl)-1H-pyrazolo[3,4-b]pyrazin-3-amine], the EC50 was greater than 10000 nM.
`Cc1cc(Cn2cc3ncc(Nc4n[nH]c5cccnc45)cc3n2)no1` [Example 144, N-(2-((5-methylisoxazol-3-yl)methyl)-2H-pyrazolo[4,3-b]pyridin-6-yl)-1H-pyrazolo[4,3-b]pyridin-3-amine] showed an EC50 greater than 10000 nM.
`Cc1cc(Cn2cc3ncc(Nc4n[nH]c5nccnc45)cc3n2)no1` [Example 145, N-(2-((5-methylisoxazol-3-yl)methyl)-2H-pyrazolo[4,3-b]pyridin-6-yl)-1H-pyrazolo[3,4-b]pyrazin-3-amine] showed an EC50 greater than 10000 nM.
In the case of `Cc1cc(Cn2ncc3ncc(Nc4n[nH]c5cccnc45)cc32)no1` [Example 146, N-(1-((5-methylisoxazol-3-yl)methyl)-1H-pyrazolo[4,3-b]pyridin-6-yl)-1H-pyrazolo[4,3-b]pyridin-3-amine], the EC50 is reported as greater than 10000 nM.
Work on `Cn1ncc2ncc(Nc3n[nH]c4cccnc34)cc21` [Example 147, N-(1-methyl-1H-pyrazolo[4,3-b]pyridin-6-yl)-1H-pyrazolo[4,3-b]pyridin-3-amine] yielded an EC50 of 1260 nM.
Work on `Cn1ncc2ncc(Nc3n[nH]c4nccnc34)cc21` [Example 148, N-(1-methyl-1H-pyrazolo[4,3-b]pyridin-6-yl)-1H-pyrazolo[3,4-b]pyrazin-3-amine] yielded an EC50 of 3530 nM.
With `c1cnc2c(Nc3cnc4cnn(CC5CCC5)c4c3)n[nH]c2n1` [Example 149, N-(1-(cyclobutylmethyl)-1H-pyrazolo[4,3-b]pyridin-6-yl)-1H-pyrazolo[3,4-b]pyrazin-3-amine] the EC50 was greater than 10000 nM.
`c1nc2cnn(CC3CCC3)c2cc1Nc1n[nH]c2c1CCCC2` [Example 150, 1-(cyclobutylmethyl)-N-(4,5,6,7-tetrahydro-1H-indazol-3-yl)-1H-pyrazolo[4,3-b]pyridin-6-amine] gave an EC50 greater than 10000 nM.
